Source: ChEMBL document CHEMBL1649188, “Posaconazole therapeutic drug monitoring: a reference laboratory experience” (Antimicrob Agents Chemother, 2009)

How the values were obtained:
Assay type in all cases: ADME, organism-based
Settings in all cases: in vivo
[1] = species on record: Homo sapiens; assay: Drug level in patient serum with chronic graft-versus-host disease by HPLC analysis
[2] = species on record: Homo sapiens; assay: Drug level in patient serum with infection by HPLC analysis
[3] = species on record: Homo sapiens; assay: Drug level in patient serum with acute graft-versus-host disease by HPLC analysis
[4] = species on record: Homo sapiens; assay: Drug level in patient serum with invasive aspergillosis by HPLC analysis

Compound: CC[C@@H]([C@H](C)O)n1ncn(-c2ccc(N3CCN(c4ccc(OC[C@@H]5CO[C@@](Cn6cncn6)(c6ccc(F)cc6F)C5)cc4)CC3)cc2)c1=O [POSACONAZOLE]
- Drug uptake [1]: 1.47 µg/mL
- Drug uptake [2]: 0.611 µg/mL
- Drug uptake [3]: 0.958 µg/mL
- Drug uptake [4]: 0.134 µg/mL
